Patent US5688824A, “Use of leflunomide to prevent or control xenograft rejection” (priority 1996, dated 1997)
“Also recorded” adds a separate entry of the source. Read-outs that look alike come from different tables or passages of the source.

Tests used:
[1] = tested on: platelet derived growth factor-receptor (PDGFR) tyrosine kinase; conditions: cited from earlier work
glomerulonephritis = conditions: oral 2 mg/kg/day, prophylactic or therapeutic; cited from earlier work
[2] = tested on: rejection of concordant hamster to rat renal xenografts; test: hamster to rat concordant renal xenograft rejection; type: in vivo, Golden Syrian hamster donor, LEW rat recipient
Description: Like Example 2, this experiment was also designed to determine a dose response curve using leflunomide as monotherapy, CsA as monotherapy, and both used as combination therapy. End points used to assess efficacy were duration of time to rejection, mortality, and histologic differences among the treatment groups.
Golden Syrian hamsters and LEW rats were maintained as in Example 2, and leflunomide and CsA were administered in the same manner as in Example 2. Renal transplantation was performed using cuffs of aorta and vena cava for vascular anastomosis; the donor ureter bearing a button of bladder was connected to the recipient bladder. Both recipient kidneys were removed at the time of transplantation.
Leflunomide monotherapy was dosed at 2.5, 5, 10 and 15 mg/kg. CsA monotherapy at 10 mg/kg was given to one group. Two groups were given combination therapy of leflunomide 5 mg/kg with CsA 5 mg/kg, and leflunomide 5 mg/kg with CsA 10 mg/kg. Serum creatinine was measured at 7 days and 21 days. Rejection was defined as death of the animal from uremia with histology consistent with immune-mediated injury.
At the death of the animal, the kidney graft was removed, fixed in formalin, and stained with hematoxylin and eosin to determine the extent of pathological change. IgG and IgM staining was also done on formalin-fixed tissue, using ABC Technique as for Example 2.

cytotoxic antibody = test: complement-mediated cytotoxicity assay, cardiac xenografts; type: in vivo, rat; conditions: leflunomide therapy
IL-2 = conditions: cited from earlier work
SLE in MRL/lpr mice = conditions: cited from earlier work
[3] = cited from earlier work
[4] = tested on: intimal thickening in balloon-injured carotids; conditions: 20 mg/kg daily from day 3 pre-transplant to day 13 post-transplant; cited from earlier work
[5] = tested on: cardiac allografts, established acute rejection; conditions: cited from earlier work; for mean survival time of the cardiac allografts: 7 days
allogeneic kidney graft = conditions: cited from earlier work
human T-cell = conditions: stimulated by allogeneic lymphocytes, anti-CD3 or anti-CD28 with PMA, or IL-2 or IL-2 with PMA; cited from earlier work
[6] = tested on: rat adjuvant arthritis models and rat allergic encephalitis model; conditions: cited from earlier work
[7] = tested on: proteoglycan-induced arthritis; conditions: BALB/c mouse; cited from earlier work
EGF receptor kinase = conditions: cited from earlier work
renal allograft = conditions: cited from earlier work
cardiac allograft = conditions: cited from earlier work
[8] = tested on: intimal thickening of BN orthotopic femoral arterial grafts; conditions: oral 10 mg/kg/day; cited from earlier work
[9] = tested on: anti-donor specific IgM and IgG; test: anti-donor specific IgM and IgG titers by flow cytometry, cardiac xenografts; type: in vivo, rat; conditions: leflunomide alone
Description: Serum samples were obtained from the animals by drawing 0.2 ml of blood from the tail vein at two day intervals, for the first eight days after transplantation, and then at seven day intervals after day 14. Serum samples were stored at -80° C. The anti-donor specific IgM and IgG titers were measured using cervical lymph nodes from hamsters as target cells for flow cytometry. Lymphocytes obtained from the lymph nodes were washed with PBS and suspended at a concentration of 10^7 cells/ml. Aliquots of 50 μl containing ~5×10^5 lymphocytes were incubated with 50 μl of diluted sera (diluted 1:25 in phosphate buffered saline) for 30 minutes at 4° C. and then washed twice in 1 ml of PBS. IgM and IgG antibodies were stained by incubating the washed cells for 30 minutes at 4° C. with 50 μl of PBS containing a mixture of labeled goat antibodies specific for rat IgG and rat IgM (Jackson Immunoresearch Labs, Westgrove, Pa.). After staining, the cells were washed twice, fixed in 1% formalin and analyzed on the BPICS-C flow cytometry (Coulter Company), according to Williams et al., Transplantation, 57:1223-1231 (1994).

[10] = tested on: BN heterotopic heart grafts; conditions: oral 15 mg/kg/day, cited from earlier work
[11] = 2.5 mg/kg or 5 mg/kg leflunomide
[12] = 10 mg/kg and 15 mg/kg leflunomide

Cc1oncc1C(=O)Nc1ccc(C(F)(F)F)cc1 [leflunomide, N-(4-trifluoromethylphenyl)-5-methylisoxazol-4-carboxamide]
inhibition of PDGFR tyrosine kinase activity [1]: inhibits the intrinsic EGF receptor kinase as well as other kinases such as platelet derived growth factor-receptor (PDGFR) tyrosine kinase activity | effect on glomerulonephritis (glomerulonephritis): effective in both preventing and curing glomerulonephritis; also recorded: significant decrease in total urinary protein, plasma cholesterol and fibrinogen, as well as decreased deposition of fibrin, immunoglobulin G and complement C3 | effect on survival [2, 11]: did not significantly increase survival time | histopathology [2, 11]: did not significantly alter histopathology compared to controls | mean serum creatinine values vs controls [2, 11]: slightly reduced | effect on survival [2, 12]: statistically significant improvement in survival | histology [2, 12]: the histology did not show significant rejection | Mean Creatinine Day 7 ([2]; Lef 2.5 mg/kg, group 2): 3.6 | Mean Survival ± S.D. ([2]; Lef 2.5 mg/kg, group 2): 8.5 ± 2.1 | Mean Creatinine Day 7 ([2]; Lef 5.0 mg/kg, group 3): 2.7 | Mean Survival ± S.D. ([2]; Lef 5.0 mg/kg, group 3): 7.0 ± 2.6 | Mean Creatinine Day 7 ([2]; Lef 10 mg/kg, group 4): 1.6 | Mean Survival ± S.D. ([2]; Lef 10 mg/kg, group 4): 17.0 ± 8.9 | Mean Creatinine Day 7 ([2]; Lef 15 mg/kg, group 5): 1.2 | Mean Survival ± S.D. ([2]; Lef 15 mg/kg, group 5): 13.2 ± 7.1 | Graft Survival for Each Subject ([2]; Lef 15 mg/kg, group 5, listed as Lef): 17,24 | terminal serum creatinine ([2]; appropriate dose of leflunomide, most of the animals): less than 2.5 | cytotoxic antibody titres (cytotoxic antibody): prevented or reversed the cytotoxic antibody titres | inhibition of production of IL-2 (IL-2): only partially inhibits the production of IL-2 | ability to inhibit SLE relative to Cyclosporine A (SLE in MRL/lpr mice; MRL/lpr mice): equal or superior to Cyclosporine A (CsA) in ability to inhibit SLE | disease progression, lymphocyte accumulation, T-cell ratio (SLE in MRL/lpr mice; MRL/lpr mice): stops disease progression and prevents the development of glomerulonephritis | disease progression, lymphocyte accumulation, T-cell ratio (SLE in MRL/lpr mice; MRL/lpr mice, listed as Leflunomide): suppresses the intense accumulation of lymphocytes in the lymph nodes and spleen of these mice, restores the T-cell helper/suppressor ratio to normal values, and restores the depressed proliferative response of lymphocytes and macrophages | animals still alive (SLE in MRL/lpr mice; at the end of 10 weeks, mice with elevated urine protein): 90% | toxicity ([3]; animal studies, extremely high doses): liver and cardiac toxicity | tolerability ([3]; animals and man): well tolerated in animals and man | intimal thickening [4]: significantly reduced intimal thickening in balloon-injured carotids | prolongation of survival ([5]; 5 mg/kg by gavage, 7- or 14-day course from day of transplantation): approximately equal prolongations of survival | mononuclear leukocyte infiltration ([5]; started at day 4): completely cleared the mononuclear leukocyte infiltration on histological analysis | mean survival time of the cardiac allografts ([5]; started at day 4 post-transplantation): 25.4±1.4 days | mean survival time of the cardiac allografts ([5]; started at day 6 post-transplantation): 16.3±8.5 days | allospecific IgG response ([5]; started day 4): The generation of allospecific IgG response was inhibited | allospecific cytotoxic antibody production (primarily IgM) ([5]; started day 4): abrupt drop to near background levels after 7 days of treatment | reversal of acute rejection ([5]; therapy post-transplantation): effective in reversing acute rejection as determined by both functional and histological criteria | toxicity in dogs (allogeneic kidney graft; dog, in vivo): limited, however, by toxicity due to the canine's N-acetylation enzyme deficiency | survival (allogeneic kidney graft; leflunomide 8 mg/kg daily): 27 ± 1 days | survival (allogeneic kidney graft; leflunomide 16 mg/kg daily): 21 ± 2 days | time to rejection after withdrawal of leflunomide (allogeneic kidney graft; withdrawn from two dogs after 100 days, combination-treated group): ≤ 14 days | inhibition of human T-cell proliferation (human T-cell): inhibit human T-cell proliferation | anti-inflammatory activity and toxicity ([6]; U.S. Pat. No. 4,351,841): superior anti-inflammatory activity and decreased toxicity | inhibition of immunopathological processes ([6]; two rat adjuvant arthritis models and a rat allergic encephalitis model): inhibit immunopathological processes | effect on arthritis [7]: suppresses acute inflammation and protects animals from new inflammatory episodes or acute exacerbation of chronically inflamed joints | inhibition of EGF receptor kinase (EGF receptor kinase): inhibits the intrinsic EGF receptor kinase | survival (renal allograft; 5 or 10 mg/kg/day by gavage for 30 days): more than 60 days | protection (renal allograft; BN-LEW renal transplant): very similar to the protection attainable with CsA treatment | graft survival vs controls (cardiac allograft; 0.63 to 10 mg/kg/day for 7 days): significantly prolonged graft survival compared to controls | animals with indefinite graft survival (>100 days) (cardiac allograft; 21 days, leflunomide 5 mg/kg/day): three of six animals | intimal thickening [8]: reduced intimal thickening compared to untreated controls | IgG levels [9]: IgG levels remained at baseline | IgM titres [9]: delayed and slowed the rise of IgM titres, but did not completely suppress IgM rise | graft vascular disease ([10]; day 50): had no graft vascular disease | antibodies directed against BN grafts in sera [10]: contained no antibodies directed against the BN grafts
